From patent US11285156B2, “Substituted piperazines as KRAS G12C inhibitors” (Amgen Inc., priority 2018, dated 2022)

system: Phosphorylation of ERK1/2 in MIA PaCa-2 cells; experiment: Phospho-ERK1/2 MSD assay in MIA PaCa-2 cells; assay type: cell-based; conditions: read-out: p-ERK IC50 (2 h, MiaPaCa-2; μM); 2 h compound treatment, MIA PaCa-2 cells, EGF stimulated
Protocol: Phospho-ERK1/2 MSD Assay:
Sixteen hours prior to compound treatment, MIA PaCa-2 or A549 cells were seeded in 96-well cell culture plates at a density of 25,000 cells/well and incubated at 37° C., 5% CO2. A compound dose-response titration was diluted in growth media, added to appropriate wells of a cell culture plate, and then incubated at 37° C., 5% CO2 for 2 or 4 hours (see Table 15). Following compound treatment, cells were stimulated with 10 ng/mL EGF (Roche 11376454001) for 10 min, washed with ice-cold Dulbecco's phosphate-buffered saline, no Ca2+ or Mg2+ (ThermoFisher Scientific 14190144), and then lysed in RIPA buffer (50 mM Tris-HCl pH 7.5, 1% Igepal, 0.5% sodium deoxycholate, 150 mM NaCl. and 0.5% sodium dodecyl sulfate) containing protease inhibitors (Roche 4693132001) and phosphatase inhibitors (Roche 4906837001). Phosphorylation of ERK1/2 in compound-treated lysates was assayed using Phospho-ERK1/2 Whole Cell Lysate kits (Meso Scale Discovery K151DWD) according to the manufacturer's protocol.

With `C=CC(=O)N1[C@H](C)CN(c2nc(=O)n(-c3c(C)cc(N)nc3C(C)C)c3nc(-c4c(N)cccc4F)c(F)cc23)C[C@@H]1C` (single isomer, unassigned) [Example 123-5] the IC50 was 10 µM.

target: GDP-bound KRAS protein (aa 1-169), containing both G12C and C118A amino acid substitutions (Homo sapiens (Human), UniProt P01116, C118A/G12C); experiment: Coupled nucleotide exchange assay (SOS-mediated nucleotide exchange, AlphaScreen); assay type: biochemical; conditions: 5 min compound pre-incubation
Sequence (P01116 other isoform, or with tags, fused parts or gaps G12C/C118A): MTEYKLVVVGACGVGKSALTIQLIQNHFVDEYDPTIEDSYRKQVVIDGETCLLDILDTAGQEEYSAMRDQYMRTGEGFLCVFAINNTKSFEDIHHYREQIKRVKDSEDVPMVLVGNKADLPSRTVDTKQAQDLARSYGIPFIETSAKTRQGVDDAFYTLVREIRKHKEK

First: C=CC(=O)N1C[C@H](C)N(c2nc(=O)n(-c3c(C(C)C)cc(N4CCC4)nc3C(C)C)c3nc(-c4ccccc4F)c(Cl)cc23)C[C@H]1C [Example 182, 4-((2S,5R)-4-Acryloyl-2,5-dimethylpiperazin-1-yl)-1-(6-(azetidin-1-yl)-2,4-diisopropylpyridin-3-yl)-6-chloro-7-(2-fluorophenyl)pyrido[2,3-d]pyrimidin-2(1H)-one]
Second: C=CC(=O)N1[C@H](C)CN(c2nc(=O)n(-c3c(C(C)C)cnnc3C(C)C)c3nc(-c4ccccc4F)c(Cl)cc23)C[C@@H]1C [Example 206-1, 4-(cis-4-Acryloyl-3,5-dimethylpiperazin-1-yl)-6-chloro-1-(3,5-diisopropylpyridazin-4-yl)-7-(2-fluorophenyl)pyrido[2,3-d]pyrimidin-2(1H)-one]
The “Coupled exchange IC50 (5 min; μM)” value of the first is 61-fold higher: 8.794 µM for the first, 0.143 µM for the second.

In the case of `C=CC(=O)N1CCN(c2nc(=O)n(-c3c(C)ccnc3C(C)C)c3nc(-c4c(C)ccc5c4CC(=O)N5)c(Cl)cc23)[C@@H](C)C1` [Example 228, 4-((S)-4-Acryloyl-2-methylpiperazin-1-yl)-6-chloro-1-(2-isopropyl-4-methylpyridin-3-yl)-7-(5-methyl-2-oxoindolin-4-yl)pyrido[2,3-d]pyrimidin-2(1H)-one], the “Coupled exchange IC50 (5 min; μM)” value is reported as 0.769 µM.

same assay, conditions: read-out: Coupled exchange IC50 (5 min; μM); 5 min compound pre-incubation

Going from `C=CC(=O)N1[C@H](C)CN(c2nc(=O)n(-c3c(C)cc(N)nc3C(C)C)c3nc(-c4c(N)cccc4F)c(F)cc23)C[C@@H]1C` (single isomer, unassigned) [Example 123-5] to `C=CC(=O)N1C[C@H](C)N(c2nc(=O)n(-c3c(C)cc(CN(C)C)cc3C(C)C)c3nc(-c4c(N)cccc4F)c(F)cc23)C[C@H]1C` [Example 184, 4-((2S,5R)-4-Acryloyl-2,5-dimethylpiperazin-1-yl)-7-(2-amino-6-fluorophenyl)-1-(4-((dimethylamino)methyl)-2-isopropyl-6-methylphenyl)-6-fluoropyrido[2,3-d]pyrimidin-2(1H)-one], the IC50 falls from 7.53 µM to 2.81 µM (2.7-fold).

Compared with `CC#CC(=O)N1C[C@H](C)N(c2nc(=O)n(-c3c(C)ccnc3C(C)C)c3nc(-c4ccccc4F)c(F)cc23)C[C@H]1C` [Example 119-1, 4-((2S,5R)-4(But-2-ynoyl)-2,5-dimethylpiperazin-1-yl)-6-fluoro-7-(2-fluorophenyl)-1-(2-isopropyl-4-methylpyridin-3-yl)pyrido[2,3-d]pyrimidin-2(1H)-one], `Cc1ccnc(C(C)C)c1-n1c(=O)nc(N2C[C@@H](C)N(C(=O)C#CCN(C)C)C[C@@H]2C)c2cc(F)c(-c3ccccc3F)nc21` [Example 119-2, 4-((2S,5R)-4-(4-(Dimethylamino)but-2-ynoyl)-2,5-dimethylpiperazin-1-yl)-6-fluoro-7-(2-fluorophenyl)-1-(2-isopropyl-4-methylpyridin-3-yl)pyrido[2,3-d]pyrimidin-2(1H)-one] is 73-fold lower in IC50: 24 µM for the first, 0.33 µM for the second. The second is the more potent here.

`C=CC(=O)N1C[C@H](C)N(c2nc(=O)n(-c3c(N(C)C)ccnc3C(C)C)c3nc(-c4c(F)cccc4NC(=O)C4CC4)c(Cl)cc23)C[C@H]1C` [Example 122-3, N-[2-[6-Chloro-1-[4-(dimethylamino)-2-isopropyl-3-pyridyl]-4-[(2S,5R)-2,5-dimethyl-4-prop-2-enoyl-piperazin-1-yl]-2-oxo-pyrido[2,3-d]pyrimidin-7-yl]-3-fluoro-phenyl]cyclopropanecarboxamide] and `C=CC(=O)N1C[C@H](C)N(c2nc(=O)n(-c3c(C(C)C)ccnc3C(C)C)c3nc(-c4ccccc4C)c(F)cc23)C[C@H]1C` [Example 124-5, 1-(2,4-Diisopropyl-3-pyridyl)-4-[(2S,5R)-2,5-dimethyl-4-prop-2-enoyl-piperazin-1-yl]-6-fluoro-7-(o-tolyl)pyrido[2,3-d]pyrimidin-2-one] are within 1.5-fold of each other in IC50: 0.503 µM for the first, 0.439 µM for the second.

Going from `C=CC(=O)N1C[C@H](C)N(c2nc(=O)n(-c3c(CN(CC)C(C)C)ccnc3C(C)C)c3nc(-c4ccccc4C(C)C)c(Cl)cc23)C[C@H]1C` [Example 141-2, 6-Chloro-4-[(2S,5R)-2,5-dimethyl-4-prop-2-enoyl-piperazin-1-yl]-1-[4-[[ethyl(isopropyl)amino]methyl]-2-isopropyl-3-pyridyl]-7-(2-isopropylphenyl)pyrido[2,3-d]pyrimidin-2-one] to `C=CC(=O)N1C[C@H](C)N(c2nc(=O)n(-c3c(C(C)C)nc(CC)nc3C(C)C)c3nc(-c4ccccc4F)c(Cl)cc23)C[C@H]1C` [Example 169, 6-Chloro-4-[(2S,5R)-2,5-dimethyl-4-prop-2-enoyl-piperazin-1-yl]-1-(2-ethyl-4,6-diisopropyl-pyrimidin-5-yl)-7-(2-fluorophenyl)pyrido[2,3-d]pyrimidin-2-one], the IC50 rises from 0.279 µM to 0.55 µM (2-fold).

First: C=CC(=O)N1C[C@H](C)N(c2nc(=O)n3c4nc(c(Cl)cc24)-c2ccccc2C/C=C\Cc2cccc(C(C)C)c2-3)C[C@H]1C [Example 146-1, (F)-(9Z)-19-Chloro-22-((2S,5R)-2,5-dimethyl-4-(2-propenoyl)-1-piperazinyl)-3-(2-propanyl)-1,23,26-triazapentacyclo[16.6.2.0˜2,7˜.0˜12,17˜0˜21,25-]hexacosa-2,4,6,9,12,14,16,18,20,22,25-undecaen-24-one and (F)-19-chloro-22-((2S,5R)-2,5-dimethyl-4-(2-propenoyl)-1-piperazinyl)-3-(2-propanyl)-1,23,26-triazapentacyclo[6.6.2.0˜2,7˜.0˜12,17˜.0˜21,25˜]hexacosa-2,4,6,9,12,14,16,18,20,22,25-undecaen-24-one]
Second: C=CC(=O)N1C[C@H](C)N(c2nc(=O)n(-c3c(C)cc([S+](C)[O-])cc3C(C)C)c3nc(-c4ccccc4F)c(Cl)cc23)C[C@@H]1C (some centres unmarked) [compound 216]
The IC50 of the first is 6.4-fold higher: 12.8 µM for the first, 2.01 µM for the second.

`C=CC(=O)N1C[C@H](C)N(c2nc(=N)n(CC(C)(C)C)c3nc(-c4ccccc4F)c(Cl)cc23)C[C@H]1C` [Example 150, 1-((2R,5S)-4-(6-Chloro-7-(2-fluorophenyl)-2-imino-1-neopentyl-1,2-dihydropyrido[2,3-d]pyrimidin-4-yl)-2,5-dimethylpiperazin-1-yl)prop-2-en-1-one] and `C=CC(=O)N1C[C@H](C)N(c2n/c(=N\C)n(CC(C)(C)C)c3nc(-c4ccccc4F)c(Cl)cc23)C[C@H]1C` [Example 151, 1-((2R,5S)-4-((Z)-6-Chloro-7-(2-fluorophenyl)-2-(methylimino)-1-neopentyl-1,2-dihydropyrido[2,3-d]pyrimidin-4-yl)-2,5-dimethylpiperazin-1-yl)prop-2-en-1-one 2,2,2-trifluoroacetate] are within 1.5-fold of each other in IC50: 0.313 µM for the first, 0.348 µM for the second.

First: C=CC(=O)N1C[C@H](C)N(c2nc(=O)n(-c3ccccc3C(C)C)c3c2CCN(c2ccccc2)C3)C[C@H]1C [Example 152, 4-((2S,5R)-4-Acryloyl-2,5-dimethylpiperazin-1-yl)-1-(2-isopropylphenyl)-7-phenyl-5,6,7,8-tetrahydropyrido[3,4-d]pyrimidin-2(1H)-one]
Second: C=CC(=O)N1C[C@H](C)N(c2nc(=O)n(-c3c(C(C)C)nc(-c4ccoc4)nc3C(C)C)c3nc(-c4ccccc4F)c(Cl)cc23)C[C@H]1C [Example 171, 6-Chloro-4-[(2S,5R)-2,5-dimethyl-4-prop-2-enoyl-piperazin-1-yl]-7-(2-fluorophenyl)-1-[2-(3-furyl)-4,6-diisopropyl-pyrimidin-5-yl]pyrido[2,3-d]pyrimidin-2-one]
The IC50 of the first is 640-fold higher: 132 µM for the first, 0.206 µM for the second. The second is the more potent here.

Going from `C=CC(=O)N1C[C@H](C)N(c2nc(=O)n(-c3c(C)nc(C)nc3C(C)C)c3nc(-c4ccccc4F)c(C)cc23)C[C@H]1C` [Example 195, 4-((2S,5R)-4-Acryloyl-2,5-dimethylpiperazin-1-yl)-7-(2-fluorophenyl)-1-(4-isopropyl-2,6-dimethylpyrimidin-5-yl)-6-methylpyrido[2,3-d]pyrimidin-2(1H)-one] to `C=CC(=O)N1[C@H](C)CN(c2nc(=O)n(-c3c(C)ccnc3C(C)C)c3nc(-c4ccccc4F)c(Cl)nc23)C[C@@H]1C` [Example 224, 4-((3R,5S)-4-Acryloyl-3,5-dimethylpiperazin-1-yl)-6-chloro-7-(2-fluorophenyl)-1-(2-isopropyl-4-methylpyridin-3-yl)pteridin-2(1H)-one], the IC50 rises from 0.488 µM to 7.62 µM (16-fold).

`C=CC(=O)N1C[C@H](C)N(C2=NCC(=O)N(c3c(C)ccnc3C(C)C)c3nc(-c4ccccc4F)c(Cl)cc32)C[C@H]1C` [Example 219, 5-((2S,5R)-4-Acryloyl-2,5-dimethylpiperazin-1-yl)-7-chloro-8-(2-fluorophenyl)-1-(2-isopropyl-4-methylpyridin-3-yl)-1,3-dihydro-2H-pyrido[2,3-e][1,4]diazepin-2-one] and `C=CC(=O)N1C[C@H](C)N(C2=NCC(=O)N(CC(C)(C)C)c3nc(-c4ccccc4F)c(Cl)cc32)C[C@H]1C` [Example 220, 5-((2S,5R)-4-Acryloyl-2,5-dimethylpiperazin-1-yl)-7-chloro-8-(2-fluorophenyl)-1-neopentyl-1,3-dihydro-2H-pyrido[2,3-e][1,4]diazepin-2-one] are the same in IC50: 250 µM for the first, 250 µM for the second.

With `C=CC(=O)N1CCN(c2c(C(N)=O)c(=O)n(-c3c(C)ccnc3C(C)C)c3nc(-c4ccccc4F)c(Cl)cc23)CC1` [Example 221, 4-(4-Acryloylpiperazin-1-yl)-6-chloro-7-(2-fluorophenyl)-1-(2-isopropyl-4-methylpyridin-3-yl)-2-oxo-1,2-dihydro-1,8-naphthyridine-3-carboxamide] the IC50 was 1.26 µM.
